Measured values published in patent US20210052741A1, “GENE THERAPY METHODS AND COMPOSITIONS USING AUXOTROPHIC REGULATABLE CELLS” (AUXOLYTIC LTD, priority 2018, published 2021).
Several values for one entry are separate records, joined by “and”; a condition that tells them apart may be missing. Equal entries are not always repeated.

How the values were obtained:
Assay type in all cases: cell-based, human
WT T cells = assay: Auxotrophy assay in sorted T cells; details: for Viable cells per ml: Anti-CD3/-CD28 beads
Description: (§1) These T cells were also subjected to an auxotrophy assay and the possibility to select these cells with 5-FOA was tested. […] Higher Uridine concentrations led to higher proliferation rates. Auxotrophic growth of UMPS KO or wild-type (WT) T cells is shown in FIG. 7B and Table 28.

UMPS KO T cells = assay: Auxotrophy assay in sorted T cells; details: for Relative viability on Day 4 (%) / Viable cells per ml: UMPS KO
Description: as §1

[1] = system: UMPS^KO/KO/GFP^+ K562 cells; assay: Auxotrophy assay in K562 cells
Description: The sorted UMPS^KO/KO/GFP^+ cell population were subjected to assays evaluating their auxotrophy and their resistance to 5-FOA. The cells were split into samples of equal numbers and cultured in the presence of different concentrations of Uridine or without. […] Cell growth was inhibited at a lower concentration (25 μg/ml) while cell numbers declined with a lower concentration or no Uridine (FIG. 6E).

UMPS-7 targeted T cells = assay: 5-FOA selection, cell counts after 4 days; details: for Average of cells per volume unit: UMPS-7, 4 days in 5-FOA without serum; for Average number of cells per volume unit: UMPS-7, 4 days in 5-FOA
Description: (§2) 5-FOA selects for uracil auxotrophic cells in other organisms (e.g. Boeke et al. 1984, Mol. Gen. Genet. 197(2):345-6), which is hereby incorporated by reference in its entirety). To investigate the potential utility of 5-FOA for the selection of uracil auxotrophs among human cells, the UMPS gene was targeted in human T cells by Cas9-gRNA complex electroporation followed by recovery (as shown in Example 2) followed by an assay of resistance to 5-FOA treatment (FIG. 3A). Cells were grown in 5-FOA and a variety of combinations of serum and uracil sources for 4 days before cell counting was performed.

Mock T cells [2] = assay: 5-FOA selection, cell counts after 4 days; details: for Average of cells per volume unit / Average number of cells per volume unit: Mock; for Average of cells per volume unit: 4 days in 5-FOA without serum; for Average number of cells per volume unit: 4 days in 5-FOA
Description: as §2

Mock T cells [3] = assay: Uracil auxotrophy growth assay after 5-FOA selection; details: after 4 days 5-FOA selection, 4 days in supplemented media, without serum
Description: To assay whether or not the cells selected for by 5-FOA treatment were uracil auxotrophs, mock or UMPS targeted T cells were exposed to 5-FOA as shown in Example 4. Following 4 days of 5-FOA selection, the population of cells was split into an uracil containing media (UMP, uridine or both) and an uracil deficient media. A growth assay was subsequently performed by cell counting after following 4 days incubation in test media (Day 8) (FIG. 4A). In all cases, cell growth in the mock targeted cell cultures was negligible and independent of uracil source supplementation—indicating successful killing of non-UMPS targeted cells during the 5-FOA selection step (FIG. 4B-FIG. 4D).

[4] = system: UMPS^KO/KO T cells mixed with wild-type T cells; assay: 5-FOA selection in mixed T cell population
Text: To evaluate the possibility to select for UMPS^KO/KO cells with 5-FOA, the sorted cells were mixed with wild-type cells, which were labeled with different tracking dyes, and cultured in the presence or absence of 5-FOA. In part of the samples, 5-FOA was only added on the first day (Day 0) while in another group it was supplemented daily. Table 30 and FIG. 7C show the percent (%) of the UMPS-KO T cells (labelled with eFluor670) over time when culturing with or without 5-FOA.
In fact, FACS analysis of a culture of a mixed population of UMPS knockout and wild-type T cells with 5-FOA. UMPS-KO T cells were labeled with eFluor670, and wild-type cells were labeled with carboxyfluorescein succinimidyl ester (CFSE). […] On Day 0 in the control group not treated with 5-FOA, 47.7% of the cells were UMPS-KO T cells, and 52.1% were wild-type cells. On Day 3 in the group with 5-FOA supplemented daily, 74.0% of the cells were UMPS-KO T cells, while 25.8% were wild-type cells. On Day 3 in the control group not treated with 5-FOA, 43.1% of the cells were UMPS-KO T cells, and 56.4% were wild-type cells.

GFP- UMPS^WT/WT hESCs = assay: 5-FOA resistance in hESC co-culture (FACS); details: for Viable cell counts, GFP−: co-culture
Text: (§3) To assess resistance to 5-FOA, the UMPS-KO hESCs were genetically engineered to express GFP from an expression cassette integrated into a safe-harbor locus for easier identification in co-culture with UMPS-WT cells.
(§4) These UMPS^KO/KO hESCs were mixed with UMPS^WT/WT cells that were not expressing GFP and followed up by fluorescence-activated cell sorting (FACS) analysis in the presence of different concentrations of 5-FOA. Table 16 provides counts of viable GFP+ and GFP− cells after culture with different 5-FOA concentrations.

GFP+ UMPS^KO/KO hESCs = assay: 5-FOA resistance in hESC co-culture (FACS); details: for Viable cell counts, GFP+: co-culture
Text: as §3, §4

O=c1ccn([C@@H]2O[C@H](CO)[C@@H](O)[C@H]2O)c(=O)[nH]1 [Uridine]
Relative viability of the cell population on Day 4 (WT T cells; 2.5 μg/ml Uridine): 84.64 and 82.19 and 80.45
Viable cells per ml (WT T cells; 2.5 μg/ml uridine): 486192 cells per ml and 362626 cells per ml and 364194 cells per ml
Relative viability of the cell population on Day 4 (WT T cells; 25 μg/ml Uridine): 83.91 and 83.40 and 79.66
Viable cells per ml (WT T cells; 25 μg/ml uridine): 384503 cells per ml and 410116 cells per ml and 338547 cells per ml
Relative viability of the cell population on Day 4 (WT T cells; 250 μg/ml Uridine): 86.05 and 86.97 and 87.62
Viable cells per ml (WT T cells; 250 μg/ml uridine): 609575 cells per ml and 412493 cells per ml and 468354 cells per ml
proliferation (UMPS KO T cells; Anti-CD3/-CD28 beads, different Uridine concentrations): proliferated only in the presence of Uridine
Relative viability on Day 4 (%) (UMPS KO T cells; 2.5 μg/ml Uridine): 78.78 and 79.28 and 79.74
Viable cells per ml (UMPS KO T cells; 2.5 μg/ml uridine, Anti-CD3/-CD28 beads): 226596 cells per ml and 217594 cells per ml and 224448 cells per ml
Relative viability on Day 4 (%) (UMPS KO T cells; 25 μg/ml Uridine): 82.16 and 81.57 and 83.09
Viable cells per ml (UMPS KO T cells; 25 μg/ml uridine, Anti-CD3/-CD28 beads): 282368 cells per ml and 268684 cells per ml and 304864 cells per ml
Relative viability on Day 4 (%) (UMPS KO T cells; 250 μg/ml Uridine): 85.66 and 85.29 and 84.38
Viable cells per ml (UMPS KO T cells; 250 μg/ml uridine, Anti-CD3/-CD28 beads): 319120 cells per ml and 345862 cells per ml and 348022 cells per ml
Number of cells per ml, Day 1 ([1]; 2.5 ug/ml Uridine): 57.83 cells per ml and 49.52 cells per ml and 40.56 cells per ml
Number of cells per ml, Day 1 ([1]; 25 ug/ml Uridine): 60.92 cells per ml and 69.81 cells per ml and 58.10 cells per ml
Number of cells per ml, Day 1 ([1]; 250 ug/ml Uridine): 83.41 cells per ml and 109.11 cells per ml and 64.28 cells per ml
Number of cells per ml, Day 8 ([1]; 250 ug/ml Uridine): 631.12 cells per ml and 629.35 cells per ml and 318.17 cells per ml
cell growth ([1]; Uridine 25 μg/ml): inhibited
cell growth ([1]; Uridine 250 μg/ml): expanded rapidly
cell numbers ([1]; lower Uridine concentration (2.5 μg/ml) or no Uridine): declined
survival in 5-FOA compared to control (UMPS-7 targeted T cells; UMPS targeted cells): improved the survival
Average of cells per volume unit (UMPS-7 targeted T cells; with substrate): 77755.72 cells per volume unit
Average of cells per volume unit (Mock T cells [2]; with substrate): 53052.43 cells per volume unit
survival in 5-FOA compared to control (Mock T cells [2]; mock treated cells): improved the survival
Cells counts on Day 8 (Mock T cells [3]): 1249 and 687

O=C(O)c1[nH]c(=O)[nH]c(=O)c1F [5-FOA, 5-fluoroorotic acid]
Percent of UMPS^KO/KO cells in mixed cell population, Day 0 ([4]; 5-FOA Day 0 only): 43.7% and 43.2%
Percent of UMPS^KO/KO cells in mixed cell population, Day 1 ([4]; 5-FOA Day 0 only): 59.2% and 55.6% and 50.8%
Percent of UMPS^KO/KO cells in mixed cell population, Day 3 ([4]; 5-FOA Day 0 only): 67.2% and 68.6% and 67.8%
Percent of UMPS^KO/KO cells in mixed cell population, Day 0 ([4]; 5-FOA daily): 43.2%
Percent of UMPS^KO/KO cells in mixed cell population, Day 1 ([4]; 5-FOA daily): 58.5% and 55.4% and 54.5%
Percent of UMPS^KO/KO cells in mixed cell population, Day 3 ([4]; 5-FOA daily): 70.7% and 69.2%
percent wild-type cells in mixed population, Day 0 ([4]; 5-FOA only on the first day (Day 0), FACS): 56.0%
percent wild-type cells in mixed population, Day 3 ([4]; 5-FOA supplemented daily, FACS): 25.8%
percent of UMPS-KO T cells, treated vs untreated group ([4]; unpaired t test): significant increase in the percent of UMPS-KO T cells
Average of cells per volume unit (UMPS-7 targeted T cells; No UMP/Uridine): 52156.98 cells per volume unit and 67438.73 cells per volume unit
Average number of cells per volume unit (UMPS-7 targeted T cells; No Serum, No UMP/Uridine): 56895.21 cells per volume unit
Average number of cells per volume unit (UMPS-7 targeted T cells; With Serum, No UMP/Uridine): 54282.95 cells per volume unit
Average of cells per volume unit (Mock T cells [2]; No UMP/Uridine): 12279.07 cells per volume unit and 16467.39 cells per volume unit
Average number of cells per volume unit (Mock T cells [2]; No Serum, No UMP/Uridine): 13947.04 cells per volume unit
Average number of cells per volume unit (Mock T cells [2]; With Serum, No UMP/Uridine): 13403.28 cells per volume unit
sensitivity of UMPS-WT cells to 5-FOA (GFP- UMPS^WT/WT hESCs; all tested concentrations (0.25-25 μg/ml)): sensitive to all tested 5-FOA concentrations
Viable cell counts, GFP− (GFP- UMPS^WT/WT hESCs; 5-FOA 0.25 μg/ml): 5180
Viable cell counts, GFP− (GFP- UMPS^WT/WT hESCs; 5-FOA 2.5 μg/ml): 687.5
Viable cell counts, GFP− (GFP- UMPS^WT/WT hESCs; 5-FOA 25 μg/ml): 334.02
tolerance of UMPS-KO cells to 5-FOA (GFP+ UMPS^KO/KO hESCs; 0.25 μg/ml): tolerated the concentration of 0.25 μg/ml well
Viable cell counts, GFP+ (GFP+ UMPS^KO/KO hESCs; 5-FOA 0.25 μg/ml): 142820
Viable cell counts, GFP+ (GFP+ UMPS^KO/KO hESCs; 5-FOA 2.5 μg/ml): 11812.5
Viable cell counts, GFP+ (GFP+ UMPS^KO/KO hESCs; 5-FOA 25 μg/ml): 8455.98
proliferation of UMPS-KO cells in 5-FOA (GFP+ UMPS^KO/KO hESCs; concentrations above 0.25 μg/ml): impaired proliferation at higher concentrations
cells GFP+ (GFP+ UMPS^KO/KO hESCs; groups with 5-FOA (54.8% without 5-FOA)): 95.0%
